Format in all cases: cell-based
For experiment [1], the target named is T1, human TLR8 (Homo sapiens, UniProt Q9NR97).
T1 construct: host or cells: HEK-Blue cells
T1 sequence (Q9NR97 27-1041): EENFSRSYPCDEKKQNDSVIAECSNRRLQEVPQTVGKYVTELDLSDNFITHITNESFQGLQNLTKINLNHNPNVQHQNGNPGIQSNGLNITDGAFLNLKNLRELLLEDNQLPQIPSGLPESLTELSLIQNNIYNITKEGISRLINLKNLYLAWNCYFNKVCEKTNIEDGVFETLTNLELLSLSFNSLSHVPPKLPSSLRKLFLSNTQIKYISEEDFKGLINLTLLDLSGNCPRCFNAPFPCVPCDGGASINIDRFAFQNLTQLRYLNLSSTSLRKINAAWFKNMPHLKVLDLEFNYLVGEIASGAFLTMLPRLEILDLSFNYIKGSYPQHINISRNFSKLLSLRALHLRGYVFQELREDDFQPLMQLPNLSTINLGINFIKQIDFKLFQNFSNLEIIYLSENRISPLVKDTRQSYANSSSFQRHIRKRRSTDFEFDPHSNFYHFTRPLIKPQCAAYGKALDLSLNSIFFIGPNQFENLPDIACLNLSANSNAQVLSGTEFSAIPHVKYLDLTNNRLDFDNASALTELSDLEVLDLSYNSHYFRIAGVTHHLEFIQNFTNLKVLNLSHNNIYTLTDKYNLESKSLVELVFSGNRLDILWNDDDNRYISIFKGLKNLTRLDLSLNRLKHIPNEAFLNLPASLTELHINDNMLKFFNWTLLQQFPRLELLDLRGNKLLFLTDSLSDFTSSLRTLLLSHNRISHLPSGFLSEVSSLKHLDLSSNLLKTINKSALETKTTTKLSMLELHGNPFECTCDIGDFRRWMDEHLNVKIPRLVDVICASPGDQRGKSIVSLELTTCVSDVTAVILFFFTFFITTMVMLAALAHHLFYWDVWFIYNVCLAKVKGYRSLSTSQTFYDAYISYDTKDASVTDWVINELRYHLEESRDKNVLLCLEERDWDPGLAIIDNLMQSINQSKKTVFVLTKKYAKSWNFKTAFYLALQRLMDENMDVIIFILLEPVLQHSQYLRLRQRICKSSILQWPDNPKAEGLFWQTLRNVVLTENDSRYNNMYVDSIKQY
The experiment in a line: TLR8 inhibition reporter assay (HEK-Blue cells, SEAP reporter, R848 stimulation). The following applies: HEK-Blue cells overexpressing human TLR8, SEAP reporter, R848 15.9 μM; read-out: TLR8 IC50. A digest of the protocol:
(§1)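 Human TLR7/8/9 HEK-Blue reporter lines; dose range 0.05 nM–50 μM; 30 min RT preincubation; stimulus gardiquimod 7.5 μM / R848 15.9 μM / ODN2006 5 nM respectively; 22 h, 37 °C; SEAP detected colorimetrically.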
(In general: Reporter assays use an easily measured gene product as a stand-in for the process of interest.)

The target in experiment [2] is T2, human TLR7 (Homo sapiens, UniProt Q9NYK1).
T2 construct: host or cells: HEK-Blue cells
T2 sequence (Q9NYK1 27-1049): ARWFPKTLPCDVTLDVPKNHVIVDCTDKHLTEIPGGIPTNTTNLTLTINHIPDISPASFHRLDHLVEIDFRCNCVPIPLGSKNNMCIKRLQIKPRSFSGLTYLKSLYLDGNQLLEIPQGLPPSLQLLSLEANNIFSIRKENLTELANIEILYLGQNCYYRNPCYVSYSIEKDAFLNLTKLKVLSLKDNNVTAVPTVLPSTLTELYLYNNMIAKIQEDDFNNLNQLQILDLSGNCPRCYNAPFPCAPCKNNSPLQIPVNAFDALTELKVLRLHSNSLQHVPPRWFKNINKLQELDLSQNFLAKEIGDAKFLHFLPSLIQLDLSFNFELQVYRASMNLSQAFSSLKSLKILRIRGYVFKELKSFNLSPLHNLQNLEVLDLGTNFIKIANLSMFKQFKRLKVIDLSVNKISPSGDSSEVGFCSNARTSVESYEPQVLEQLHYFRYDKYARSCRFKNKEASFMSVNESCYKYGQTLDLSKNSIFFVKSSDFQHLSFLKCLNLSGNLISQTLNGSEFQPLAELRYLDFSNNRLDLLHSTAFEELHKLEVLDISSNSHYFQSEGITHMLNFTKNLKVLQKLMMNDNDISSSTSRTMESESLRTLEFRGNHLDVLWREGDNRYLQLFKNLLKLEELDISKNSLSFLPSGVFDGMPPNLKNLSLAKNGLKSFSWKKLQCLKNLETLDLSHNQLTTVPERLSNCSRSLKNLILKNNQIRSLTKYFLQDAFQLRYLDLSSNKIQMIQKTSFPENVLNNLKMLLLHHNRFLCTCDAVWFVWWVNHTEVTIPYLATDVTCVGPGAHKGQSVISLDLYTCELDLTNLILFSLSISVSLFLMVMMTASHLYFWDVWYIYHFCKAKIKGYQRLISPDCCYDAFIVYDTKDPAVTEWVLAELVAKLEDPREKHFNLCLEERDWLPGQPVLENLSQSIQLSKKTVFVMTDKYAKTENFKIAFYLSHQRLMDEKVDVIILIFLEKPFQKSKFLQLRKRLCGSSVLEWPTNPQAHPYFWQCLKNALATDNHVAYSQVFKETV
As to the kind of experiment: TLR7 inhibition reporter assay (HEK-Blue cells, SEAP reporter, gardiquimod stimulation). The following applies: HEK-Blue cells overexpressing human TLR7, SEAP reporter, gardiquimod 7.5 μM; read-out: TLR7 IC50. In outline: as §1

In experiment [3] the target is T3, human TLR9 (Homo sapiens, UniProt Q9NR96).
T3 construct: host or cells: HEK-Blue cells
T3 sequence (Q9NR96 26-1032): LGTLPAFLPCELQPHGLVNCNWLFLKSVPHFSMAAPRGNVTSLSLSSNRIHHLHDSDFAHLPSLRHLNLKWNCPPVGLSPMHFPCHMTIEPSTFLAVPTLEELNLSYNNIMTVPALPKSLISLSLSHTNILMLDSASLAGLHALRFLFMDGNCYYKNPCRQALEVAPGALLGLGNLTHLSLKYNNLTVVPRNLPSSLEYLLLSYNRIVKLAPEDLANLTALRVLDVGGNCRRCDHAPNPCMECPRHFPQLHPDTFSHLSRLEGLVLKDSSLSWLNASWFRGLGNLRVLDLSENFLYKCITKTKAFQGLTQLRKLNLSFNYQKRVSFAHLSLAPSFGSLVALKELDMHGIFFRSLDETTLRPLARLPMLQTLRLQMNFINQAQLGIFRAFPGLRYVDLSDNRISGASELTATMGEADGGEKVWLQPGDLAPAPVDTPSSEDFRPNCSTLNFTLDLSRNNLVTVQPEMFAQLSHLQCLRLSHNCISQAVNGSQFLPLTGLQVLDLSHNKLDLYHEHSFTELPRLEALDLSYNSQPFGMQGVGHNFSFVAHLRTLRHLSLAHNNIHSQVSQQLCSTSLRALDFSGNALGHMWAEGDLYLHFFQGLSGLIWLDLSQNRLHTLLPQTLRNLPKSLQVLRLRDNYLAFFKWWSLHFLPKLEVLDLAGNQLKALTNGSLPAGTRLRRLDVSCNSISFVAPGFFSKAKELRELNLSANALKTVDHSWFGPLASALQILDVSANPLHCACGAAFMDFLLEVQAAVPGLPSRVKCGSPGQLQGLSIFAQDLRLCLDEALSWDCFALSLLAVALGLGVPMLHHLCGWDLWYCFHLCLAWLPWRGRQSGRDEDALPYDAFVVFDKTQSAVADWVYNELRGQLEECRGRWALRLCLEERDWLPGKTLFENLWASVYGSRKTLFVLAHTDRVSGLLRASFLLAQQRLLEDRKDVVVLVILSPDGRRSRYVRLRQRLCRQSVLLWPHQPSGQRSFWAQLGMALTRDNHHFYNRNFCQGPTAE
The experiment in a line: TLR9 inhibition reporter assay (HEK-Blue cells, SEAP reporter, ODN2006 stimulation). The following applies: HEK-Blue cells overexpressing human TLR9, SEAP reporter, ODN2006 5 nM. In outline: as §1

Bounds are passed on as bounds.

Usually IC50 stands for the concentration needed to halve the response being measured. `Cc1c(-c2[nH]c3sc(C4CCC(N5CCNC(=O)C5)CC4)nc3c2C(C)C)cn2ncnc2c1C` (single isomer, unassigned) [Example 221, 4-(4-(5-(7,8-dimethyl-[1,2,4]triazolo[1,5-a]pyridin-6-yl)-6-isopropyl-4H-pyrrolo[3,2-d]thiazol-2-yl)cyclohexyl) piperazin-2-one]: the IC50 in experiment [1] was 33.3 nM; in experiment [2], 3.08 nM; in experiment [3], over 50000 nM.

Turning to `Cc1c(-c2[nH]c3sc(C4CCC(N(C)C(C)C)CC4)nc3c2C(C)C)cn2ncnc2c1C` (single isomer, unassigned) [Example 222, 4-(5-(7,8-dimethyl-[1,2,4]triazolo[1,5-a]pyridin-6-yl)-6-isopropyl-4H-pyrrolo[3,2-d]thiazol-2-yl)-N-isopropyl-N-methylcyclohexan-1-amine], the IC50 in experiment [1] turned out to be 1.94 nM; in experiment [2], 0.75 nM; in experiment [3], 30400 nM.

In the case of `Cc1c(-c2[nH]c3sc(C4CCC(N(C)C(C)C)CC4)nc3c2C(C)C)cn2ncnc2c1C` (single isomer, unassigned) [Example 223, 4-(5-(7,8-dimethyl-[1,2,4]triazolo[1,5-a]pyridin-6-yl)-6-isopropyl-4H-pyrrolo[3,2-d]thiazol-2-yl)-N-isopropyl-N-methylcyclohexan-1-amine], the values for the IC50 in experiment [1], in experiment [2] and in experiment [3] were 10.3 nM, 8.65 nM and 14300 nM, respectively.

As to `Cc1c(-c2[nH]c3sc(C4CCC(N5CC(O)C5)CC4)nc3c2C(C)C)cn2ncnc2c1C` (single isomer, unassigned) [Example 224, 1-(4-(5-(7,8-dimethyl-[1,2,4]triazolo[1,5-a]pyridin-6-yl)-6-isopropyl-4H-pyrrolo[3,2-d]thiazol-2-yl)cyclohexyl)azetidin-3-ol], the IC50 was determined as 0.63 nM in experiment [1], 0.56 nM in experiment [2] and 9030 nM in experiment [3].

In the case of `Cc1c(-c2[nH]c3sc(C4CCC(N5CC(O)C5)CC4)nc3c2C(C)C)cn2ncnc2c1C` (single isomer, unassigned) [Example 225, 1-(4-(5-(7,8-dimethyl-[1,2,4]triazolo[1,5-a]pyridin-6-yl)-6-isopropyl-4H-pyrrolo[3,2-d]thiazol-2-yl)cyclohexyl)azetidin-3-ol], the IC50 in experiment [1] is 3.94 nM; in experiment [2], 2.56 nM; in experiment [3], 5490 nM.

On to `Cc1c(-c2[nH]c3sc(C4CCC(N5CC(F)C5)CC4)nc3c2C(C)C)cn2ncnc2c1C` (single isomer, unassigned) [Example 226, 5-(7,8-dimethyl-[1,2,4]triazolo[1,5-a]pyridin-6-yl)-2-(4-(3-fluoroazetidin-1-yl)cyclohexyl)-6-isopropyl-4H-pyrrolo[3,2-d]thiazole], for which the values for the IC50 in experiment [1], in experiment [2] and in experiment [3] were 0.41 nM, 0.35 nM and 6780 nM, respectively.

In the case of `Cc1c(-c2[nH]c3sc(C4CCC(N5CC(F)C5)CC4)nc3c2C(C)C)cn2ncnc2c1C` (single isomer, unassigned) [Example 227, 5-(7,8-dimethyl-[1,2,4]triazolo[1,5-a]pyridin-6-yl)-2-(4-(3-fluoroazetidin-1-yl)cyclohexyl)-6-isopropyl-4H-pyrrolo[3,2-d]thiazole], the figures for the half-maximal inhibitory concentration (IC50) in experiment [1], in experiment [2] and in experiment [3] were 11.4 nM, 4.43 nM and 18200 nM, respectively.

As to `Cc1c(-c2[nH]c3sc(C4CCC(N(C)CC(C)C)CC4)nc3c2C(C)C)cn2ncnc2c1C` (single isomer, unassigned) [Example 228, 4-(5-(7,8-dimethyl-[1,2,4]triazolo[1,5-a]pyridin-6-yl)-6-isopropyl-4H-pyrrolo[3,2-d]thiazol-2-yl)-N-isobutyl-N-methylcyclohexan-1-amine], the IC50 in experiment [1] came to 1.46 nM; in experiment [2], 2.18 nM; in experiment [3] it was 8860 nM.

Take `Cc1c(-c2[nH]c3sc(C4CCC(N(C)CC(C)C)CC4)nc3c2C(C)C)cn2ncnc2c1C` (single isomer, unassigned) [Example 229, 4-(5-(7,8-dimethyl-[1,2,4]triazolo[1,5-a]pyridin-6-yl)-6-isopropyl-4H-pyrrolo[3,2-d]thiazol-2-yl)-N-isobutyl-N-methylcyclohexan-1-amine]: the IC50 amounted to 3.71 nM in experiment [1], 7.1 nM in experiment [2] and 4960 nM in experiment [3].

For the compound `Cc1c(-c2[nH]c3sc(C4CCC(NC5CCS(=O)(=O)C5)CC4)nc3c2C(C)C)cn2ncnc2c1C` (single isomer, unassigned) [Example 231, 3-((4-(5-(7,8-dimethyl-[1,2,4]triazolo[1,5-a]pyridin-6-yl)-6-isopropyl-4H-pyrrolo[3,2-d]thiazol-2-yl)cyclohexyl)amino)tetrahydrothiophene 1,1-dioxide], the IC50 came out at 1.19 nM in experiment [1], 6.32 nM in experiment [2] and 49500 nM in experiment [3].

The values are drawn from US20230139171A1 (SITA Information Networking Computing UK Limited, priority 2019, published 2023).
